The nature of data set [1]: Cytotoxicity MTT assay in HeLa cells. In kind it is cell-based. The following applies: human, tetrazolium assay, read-out: CC50 (95% CL). How it is done:
The cytotoxicity of the test materials to two human cell lines was evaluated using an MTT assay described previously by Morgan. In brief, a 10× stock solution of MTT was prepared by adding 5 mg/mL MTT in phosphate-buffered saline (PBS) (pH 7.4). The stock solution was sterile-filtered and stored at −20°C. HeLa and MRC5 cells were seeded onto 96-well culture plates at a density of 3 × 10^4 cells per well for 1 day. The culture medium was removed and the plates with monolayer cells were replaced with media containing several different concentrations (1–1000 μg/mL) of the test materials in dimethylsulfoxide (DMSO). After incubation at 37°C and 5% CO2 for 2 days, the culture plates were then washed once with 200 μL PBS. A volume of 100 μL medium containing 0.05% MTT were added to each well and then incubated for 4 h at the same condition. After then, MTT solution was removed and 150 μL DMSO was added to each well. Finally, the plate was shaken for 15 min to dissolve the purple formazan crystals that had formed. Absorbance was read at 560 nm by using a VersaMax microplate reader (Molecular Devices, Sunnyvale, CA) with a reference absorbance at 670 nm.
The CC50 and IC50 values were determined using GraphPad Prism 5 software program (GraphPad Software, La Jolla, CA). […] The selectivity index (SI) was determined as the ratio of CC50 to IC50 [23]. All data represent the mean ± SD of duplicate or triplicate samples of three independent experiments. […] Data from two groups were analyzed by a Student’s t-test, and multiple groups were analyzed by a one-way analysis of variance and Bonferroni multiple comparison post-test.
In general terms: Formazan colour is commonly taken as a measure of viable cells.

The next data set has as its system HRV-4. The experiment in a line: Cytopathic effect inhibition assay (MTT), HRV-4 in MRC5 cells. The conditions noted are these: read-out: IC50 (95% CL) HRV-4. In kind it is cell-based, human rhinovirus. How it is done: (§1) Monolayers of HeLa and MRC5 cells were seeded onto a 96-well culture plate as stated previously. Subsequently, 90 μL media containing several different concentrations (1–1000 μg/mL) of each test material in DMSO was put into the wells, and then 10 μL of 10×TCID50 of the virus stock was added to produce an appropriate CPE within 2 days after infection. Ribavirin served as a reference control and was similarly prepared. Negative controls consisted of the DMSO solution. Viral inhibition rate (VIR) (%) was calculated according to the formula [21], VIR = (A tV—A cV)/(A cd—A cV) × 100, where A tV is the optical density measured with a given concentration of the test compound in HRV infected cells; A cV is the optical density measured for the control untreated HRV infected cells; A cd is the optical density measured for the control untreated HRV uninfected cells.
(§2) The CC50 and IC50 values were determined using GraphPad Prism 5 software program (GraphPad Software, La Jolla, CA). […] The selectivity index (SI) was determined as the ratio of CC50 to IC50 [23]. All data represent the mean ± SD of duplicate or triplicate samples of three independent experiments. Statistical analyses were carried out using SAS 9.13 program (SAS Institute, Cary, NC). Data from two groups were analyzed by a Student’s t-test, and multiple groups were analyzed by a one-way analysis of variance and Bonferroni multiple comparison post-test.
For orientation: Cytopathic effects are the visible damage that an infection or toxin causes in cultured cells.

The subject of a further data set is HRV-4 particles. As to the kind of experiment: Infectivity of HRV-4 particles (preincubation of virus). Format: cell-based, human rhinovirus. The conditions noted are these: MRC5 cells, 2 days; for inhibition at 100 µg/mL / inhibition at 20 µg/mL: Human rhinovirus sp. On the procedure: The effects of the test compounds on the infectivity of HRV-4 particles were elucidated as described previously by Choi et al.. […] HRV-4 was preincubated with 100 μg/mL PA, 20 μg/mL PGG, or 100 μg/mL ribavirin for 1 h at 4°C. Monolayers of MRC5 cells were infected with the pretreated or untreated HRV-4 for 1 h at 37°C. Unbound virus was removed by washing the wells with PBS twice, and then cells were incubated in fresh medium supplemented with or without test compounds at 37°C. After 2 days, MTT test and antiviral activity were carried out as stated previously.

In another data set the test system is HRV-2. As to the kind of experiment: Virus titration assay, HRV-2 in MRC5 cultures. Format: cell-based, human rhinovirus. The conditions noted are these: PGG 20 μg/mL, PA 100 μg/mL, ribavirin 100 μg/mL; for Log (TCID50/mL) ± SE HRV-2: infected MRC5 cultures, 48 h, infected untreated control 3.93; for Reduction of virus replication (Log (TCID50/mL)) ± SE HRV-2: vs infected untreated control. How it is done:
Virus titers in infected MRC-5 cultures treated with PA and PGG were measured as TCID50 using MTT-based titration method. In brief, MRC5 cells were seeded at 10^5 cells/mL in a 6-well plate. After 24 h, the cell monolayers were treated with 100 μg/mL PA or 20 μg/mL PGG and infected with HRV-2 or HRV-4 in a concentration of 10×TCID50/mL. Uninfected untreated and infected untreated cultures were included in the assay. The 100 μg/mL of ribavirin was used as a reference control. After 48 h incubation at 37°C, the cultures were frozen and thawed at −80°C/25°C. Cell debris was removed by centrifugation (2000 rpm) and the virus supernatants were collected. Virus titration was then performed in HeLa cell cultures. Initially, a 1:10 dilution of each supernatant was prepared followed by 10 serial 2-fold-dilutions, and added to HeLa cell monolayers. After 48 h, cell mortality was measured using an MTT assay stated previously. Graphs were built by plotting dead cell percentages toward virus dilution factors of each virus supernatant. The 50% infectivity point was calculated through a linear regression analysis of the curve.

The subject of data set [2] is two HRVs (HRV-2 and HRV-4). As to the kind of experiment: Cytopathic effect inhibition assay, summary over both serotypes. Format: cell-based, human rhinovirus. The following applies: Rhinovirus A; range over HRV-2 and HRV-4, HeLa and MRC5 cells; read-out: IC50 toward two HRVs (range). On the procedure: as §1, §2
Where [3] appears, read: Human rhinovirus sp., HRV4, MRC5, HRV-4 in MRC5 cells.
The mark [4] stands for this setting: HRV4, 48 h, 100 μg/mL PA, 20 μg/mL PGG, 100 μg/mL ribavirin, read-out: inhibition rate, continuous presence during infection.
[5] abbreviates: HRV4, virus preincubated 1 h at 4°C with 100 μg/mL PA, 20 μg/mL PGG or 100 μg/mL ribavirin, read-out: inhibition rate, preincubation of HRV-4 particles.

pIC50: −log10 of the molar value. Where two headings read alike, the source gives them in different places.

Turning to `COc1ccc(C(C)=O)c(O)c1` [PA, paeonol], the CC50 (usually the concentration giving 50% cytotoxicity) at 2 days in data set [1] came out at 3160 µM. The negative-log IC50 (pIC50) (commonly −log10 of the IC50, conventionally taken in molar units) with HRV-4 (HRV-4 in MRC5 cells) is 3.31; with HRV-4 (setting [3]) it was 3.31; in data set [2] it was 3.22 to 3.31. For the same compound, the inhibition (usually the relative decrease from the control value, in per cent) at 100 µg/mL in the data set with HRV-4 particles (setting [4]) was found to be 57.2%; in the data set on HRV-4 particles (setting [5]), 10.6%. Besides, the “reduction of the HRV-2 titer” value in the data set on HRV-2 was determined as 22.4%. For the same compound, the “Log (TCID50/mL) ± SE HRV-2” value with HRV-2 is 3.05 ± 0.046 b Log (TCID50/mL). Further, the “Reduction of virus replication (Log (TCID50/mL)) ± SE HRV-2” value (from here on “Reduction … (Log (TCID50/mL)) ± SE HRV-2”) in the data set on HRV-2 is reported as 0.88 ± 0.046 Log (TCID50/mL).

As to `NC(=O)c1ncn([C@@H]2O[C@H](CO)[C@@H](O)[C@H]2O)n1` [Ribavirin, reference compound], the CC50 at 2 days in data set [1] amounted to 2340 µM. In the data set with HRV-4 (setting [3]), the pIC50 is 3.51. In the data set on HRV-4 particles (setting [4]), the inhibition at 100 µg/mL is 58.2%. Moreover, the “inhibition rate, preincubation of HRV-4 particles” value in the data set on HRV-4 particles (virus preincubated 1 h at 4°C with 100 μg/mL PA, 20 μg/mL PGG or 100 μg/mL ribavirin) stood at 10.0%. In the data set with HRV-2, the “reduction of the HRV-2 titer” value is given as 30.3%, the “Log (TCID50/mL) ± SE HRV-2” value is 2.74 ± 0.020 a Log (TCID50/mL) and the “Reduction … (Log (TCID50/mL)) ± SE HRV-2” value was 1.19 ± 0.020 Log (TCID50/mL). In addition, in data set [2], the pIC50 is 3.49 to 3.62.

As to `O=C(OC[C@H]1O[C@@H](OC(=O)c2cc(O)c(O)c(O)c2)[C@H](OC(=O)c2cc(O)c(O)c(O)c2)[C@@H](OC(=O)c2cc(O)c(O)c(O)c2)[C@@H]1OC(=O)c1cc(O)c(O)c(O)c1)c1cc(O)c(O)c(O)c1` [PGG, 1,2,3,4,6-penta-O-galloyl-β-D-glucopyranose], the CC50 at 2 days in data set [1] turned out to be 109 µM. Moreover, the pIC50 was 4.76 in the data set with HRV-4 (HRV-4 in MRC5 cells), 4.76 with HRV-4 (setting [3]) and 4.75 to 4.94 in data set [2]. For the same compound, the inhibition at 20 µg/mL with HRV-4 particles (setting [4]) worked out at 54.5%; with HRV-4 particles (setting [5]) it was 11.2%. In the data set with HRV-2, the “reduction of the HRV-2 titer” value is 17.3%. Besides, the “Log (TCID50/mL) ± SE HRV-2” value with HRV-2 is recorded as 3.25 ± 0.075 b ^b Log (TCID50/mL). Further, in the data set on HRV-2, the “Reduction … (Log (TCID50/mL)) ± SE HRV-2” value is listed as 0.68 ± 0.075 Log (TCID50/mL).

Values taken from PMC4393083, “Antiviral Activity and Possible Mechanism of Action of Constituents Identified in Paeonia lactiflora Root toward Human Rhinoviruses” (PLoS ONE, 2015).
